Results as given in PubChem BioAssay (NCI).
Where “and” joins values, the source holds several entries; their conditions need not be identical. Identical values can stand only once.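 Each compound was tested at five concentrations against cells in 96-well plates for 48 hours. Abbreviation: GI50, concentration required for 50% inhibition of growth. Definition used: TGI = concentration required for complete inhibition of growth.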 *1 amine or outer side, *2 acyl side, *3 side chain or, on linkers, in order; H or OH if unused. Where a SMILES comes first, the peptide text is derived from it. Bridges are numbered along the chain shown (N, C = ends). Roman numbers before positions name the chains, in order. X23 = CCCCCCCCCCCCCCC(=O)NC(CCCCN[*:2])C(=O)CN1CCCC1C(=O)[*:1]

Legend:
Experiment in all cases: NCI tumour cell line growth inhibition, 48 h
CCRF-CEM leukemia = system: CCRF-CEM leukemia
HOP-92 NSCLC = system: HOP-92 NSCLC
LOX IMVI melanoma = system: LOX IMVI melanoma
M14 melanoma = system: M14 melanoma
MOLT-4 leukemia = system: MOLT-4 leukemia
SN12C renal = system: SN12C renal
SW-620 colon = system: SW-620 colon
UACC-257 melanoma = system: UACC-257 melanoma
MCF7 breast = system: MCF7 breast
P388 leukemia = system: P388 leukemia

Compound | TGI (CCRF-CEM leukemia) | TGI (HOP-92 NSCLC) | TGI (LOX IMVI melanoma) | TGI (M14 melanoma) | TGI (MOLT-4 leukemia) | TGI (SN12C renal) | TGI (SW-620 colon) | TGI (UACC-257 melanoma) | TGI (MCF7 breast) | GI50 (CCRF-CEM leukemia) | GI50 (HOP-92 NSCLC) | GI50 (LOX IMVI melanoma) | GI50 (M14 melanoma) | GI50 (MOLT-4 leukemia) | TGI (P388 leukemia) | GI50 (SN12C renal) | GI50 (SW-620 colon) | GI50 (UACC-257 melanoma) | GI50 (MCF7 breast)
O=C1NC2(NC(=O)C1=O)Nc1ccccc1S2 | 66.3 µM | > 100 µM | 37.8 µM | > 100 µM | > 92.5 µM | > 61.4 µM | > 46.1 µM | > 100 µM |  |  |  |  |  |  |  |  |  |  | 
O=CN(O)CC(=O)O.[Ni] | > 100 µM | > 100 µM | > 100 µM | > 100 µM | > 100 µM | > 100 µM | > 100 µM | > 100 µM | > 100 µM |  |  |  |  |  |  |  |  |  | 
COc1cccc2c1C(=O)c1c(O)c3c(c(O)c1C2=O)C[C@@](O)(C(C)=O)C[C@@H]3OC1CC(N(C)C)C(O)C(C)O1 (some centres undefined) |  |  |  |  |  | 2.15 µM and 1.01 µM | 0.622 µM and 1.56 µM |  | 0.405 µM | 29.1 nM | 0.00454 µM and < 0.0147 µM | 0.00387 µM | 0.0437 µM | 4.95 nM | 13.9 nM | 16.4 nM | 4.84 nM | 0.0435 µM and < 0.0185 µM | 
Nc1nccc2c1ncn2C1C=C(CO)C(O)C1O (centres undefined) | > 1000 µM | > 1000 µM | > 1000 µM | > 1000 µM | > 1000 µM | > 1000 µM | > 1000 µM | > 1000 µM |  | 1910 nM | > 1000 µM | 335 µM | 7.18 µM | 768 nM | > 76400 nM | 351 nM | 775 nM | 3.28 µM | 
CC(=O)C1=C(C)N(c2ccc(C)cc2)C2(O)C=CC(=O)C3=C(O)c4ccccc4C(=O)C312 (centres undefined) |  | > 100 µM | > 100 µM | > 100 µM | > 100 µM | 36.9 µM | > 100 µM | 27.1 µM | > 100 µM |  |  |  |  |  |  |  |  |  | 
OCCSCc1cc(Cl)cc(Cl)c1O | > 100 µM | > 100 µM | > 100 µM | > 100 µM | > 100 µM | > 100 µM | > 100 µM | > 100 µM | > 100 µM |  |  |  |  |  |  |  |  |  | 
NS(=O)(=O)c1ccc(N=Nc2ccc(O)c(O)c2)cc1 | 60 µM | 69.3 µM | 36 µM | 65.2 µM | > 100 µM | 44.9 µM | 41.4 µM | 66.6 µM | > 100 µM |  |  |  |  |  |  |  |  |  | 
CCCCCCCCCCCCCCC(=O)NC(CCCCNC(=O)C1CCCN1C(=O)C(CCCCN)NC(=O)C(CCCCN)NC(=O)C(CCCCN)NC(=O)C(CCCNC(=N)N)NC(=O)C(CCCCN)NC(=O)C(N)C(C)C)C(=O)CN1CCCC1C(=O)NCC(=O)NC(Cc1ccccc1)C(=O)N1CCCC1C(=O)NC(CO)C(=O)NC(Cc1ccc(O)cc1)C(=O)NC(CCCCN)C(=O)NC(CC(C)C)C(=O)NC(CCCNC(=N)N)C(=O)N1CCCC1C(=O)NCC(N)=O (centres undefined) (I: GFPSYKLRPG-NH2 / II: H-VKRKKKP; linker I:N-II:C via X23; configuration not given here) | 35.1 µM | 65.1 µM |  | 55.6 µM | 44 µM |  | > 100 µM | 53.8 µM | 45.7 µM | 16500 nM | 27 µM |  | 22.8 µM | 18700 nM |  |  | 30000 nM | 14 µM | 15.4 µM
CC1C(O)[C@@]2(OC[C@@]34C(=O)CC5(O)[C@H](CCC6Cc7nc8c(nc7C[C@]65C)CC5CC[C@@H]6C7=C[C@H]9O[C@@]%10(O[C@@](C)(CO)C[C@@H]%10O)C(C)[C@@]9(O)[C@]7(C)[C@@H](O)CC6[C@]5(C)C8)C3=CC[C@H]4C2C)OC1(C)C (some centres undefined) | 0.0966 µM | 3.25 µM | 0.864 µM |  | < 0.000355 µM | > 3.55 µM | 0.0433 µM | 0.0212 µM | 0.625 µM |  |  |  |  |  | > 3550 nM |  |  |  | 
O=C1/C(=C/c2ccc3c(c2)OCO3)Sc2scc(-c3ccc(O)c(O)c3)[n+]21 |  | 7.58 µM |  | 13.3 µM | > 20.1 µM | 4.7 µM |  | 9.35 µM | > 35.2 µM |  |  |  |  |  |  |  |  |  | 
Cc1cc(O)c2cc3c(O)c(O)ccc3cc2c1 | 22.6 µM | > 22.8 µM | > 42.3 µM | 20 µM | 5.75 µM | 17.3 µM | > 28.9 µM | 13.5 µM | > 87 µM |  |  |  |  |  |  |  |  |  | 
CCOC(=O)c1c(SC)nc(-c2ccc(Cl)cc2)sc1=N | > 100 µM | > 100 µM | > 100 µM | > 100 µM | 94 µM | > 100 µM | > 100 µM | > 100 µM | 83.4 µM |  |  |  |  |  |  |  |  |  | 
O=[N+]([O-])c1ccc(/C=N/n2c(CCc3n[nH]c(=S)n3/N=C/c3ccc([N+](=O)[O-])o3)n[nH]c2=S)o1 | 67.7 µM | 33.6 µM | 50.6 µM | 36.1 µM | 63.9 µM |  | 32.7 µM | 83.8 µM | 39.7 µM |  |  |  |  |  |  |  |  |  | 
O=CNNC(=O)CSc1nc2ccc(I)cc2c(=O)n1Cc1ccccc1 | > 100 µM | 63.3 µM | 69.1 µM | > 100 µM | > 100 µM | 79.8 µM | > 100 µM | 68.3 µM | > 100 µM |  |  |  |  |  |  |  |  |  | 
Cc1ccc([S+](c2ccccc2)c2cc(C)ccc2C)cc1 (centres undefined) | > 100 µM |  | > 100 µM | > 100 µM | > 100 µM | 46.3 µM | > 100 µM | > 100 µM |  |  |  |  |  |  |  |  |  |  | 
COC1=CCC2=C(CCN(C(=O)C3CC3)C2Cc2ccc(OC)c(O)c2)C1 (centres undefined) | > 100 µM | 96.9 µM | > 100 µM | > 100 µM | > 100 µM | > 100 µM | > 100 µM | > 100 µM | > 100 µM |  |  |  |  |  |  |  |  |  | 
CC(=O)OCC1OC(N2C(=O)CC(N)=Nc3ccccc32)C(OC(C)=O)C(OC(C)=O)C1OC(C)=O (centres undefined) | > 100 µM | > 100 µM | > 100 µM | > 100 µM | 57.3 µM | > 100 µM | > 100 µM | > 100 µM | > 100 µM |  |  |  |  |  |  |  |  |  | 
O=C1CC(NC2CC(=O)c3c(Br)sc(Br)c32)c2c(Br)sc(Br)c21 (centres undefined) | 3.17 µM | 21.5 µM | 4.68 µM | 11.9 µM | > 100 µM | 3.42 µM | 4.95 µM | 4.93 µM | 8.44 µM |  |  |  |  |  |  |  |  |  | 
Oc1ccc(NCc2cc(O)ccc2O)cc1 |  | 31.5 µM | 38 µM | 33.9 µM | 7.81 µM | 39.3 µM | > 100 µM | 32 µM | 34.2 µM |  |  |  |  |  |  |  |  |  | 
CC(C)(C)OC(=O)N1CCCC1C(=O)NCCNc1ccc(NCCNC(=O)C2CCCN2C(=O)OC(C)(C)C)c2c1C(=O)c1ccccc1C2=O (centres undefined) | > 100 µM | 30.1 µM | 26.3 µM | 29.8 µM | > 100 µM |  | 29.8 µM | 29.6 µM | 34.2 µM |  |  |  |  |  |  |  |  |  | 
CN(CCNC(=O)c1cn(C)c2c1ccc1cc(Cl)ccc12)CCNC(=O)c1cn(C)c2c1ccc1cc(Cl)ccc12 | 66 µM | 18.8 µM | 34 µM | 3 µM | 11.3 µM | 3.37 µM | 40.5 µM | 67.4 µM |  |  |  |  |  |  |  |  |  |  | 
